The target of one test is T1, Estrogen receptor (Homo sapiens, UniProt P03372).
T1 sequence (P03372 whole entry): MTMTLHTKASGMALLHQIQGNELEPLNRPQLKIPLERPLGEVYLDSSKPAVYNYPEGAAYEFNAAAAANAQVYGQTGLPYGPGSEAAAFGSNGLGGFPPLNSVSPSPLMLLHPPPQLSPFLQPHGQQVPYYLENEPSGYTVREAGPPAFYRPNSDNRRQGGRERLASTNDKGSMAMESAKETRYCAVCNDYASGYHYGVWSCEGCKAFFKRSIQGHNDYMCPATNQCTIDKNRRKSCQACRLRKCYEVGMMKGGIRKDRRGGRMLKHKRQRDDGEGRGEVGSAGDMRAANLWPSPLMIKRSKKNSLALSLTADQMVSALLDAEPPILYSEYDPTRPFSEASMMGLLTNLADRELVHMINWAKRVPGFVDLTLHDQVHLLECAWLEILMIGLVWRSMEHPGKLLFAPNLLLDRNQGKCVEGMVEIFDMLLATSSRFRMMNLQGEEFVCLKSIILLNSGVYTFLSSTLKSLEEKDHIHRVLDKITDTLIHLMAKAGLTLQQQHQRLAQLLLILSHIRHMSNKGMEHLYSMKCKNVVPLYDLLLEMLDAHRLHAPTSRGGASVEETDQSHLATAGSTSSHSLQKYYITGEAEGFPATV

The target of test [1] is T2, Estrogen receptor beta (Homo sapiens, UniProt Q92731).
T2 sequence (Q92731 whole entry): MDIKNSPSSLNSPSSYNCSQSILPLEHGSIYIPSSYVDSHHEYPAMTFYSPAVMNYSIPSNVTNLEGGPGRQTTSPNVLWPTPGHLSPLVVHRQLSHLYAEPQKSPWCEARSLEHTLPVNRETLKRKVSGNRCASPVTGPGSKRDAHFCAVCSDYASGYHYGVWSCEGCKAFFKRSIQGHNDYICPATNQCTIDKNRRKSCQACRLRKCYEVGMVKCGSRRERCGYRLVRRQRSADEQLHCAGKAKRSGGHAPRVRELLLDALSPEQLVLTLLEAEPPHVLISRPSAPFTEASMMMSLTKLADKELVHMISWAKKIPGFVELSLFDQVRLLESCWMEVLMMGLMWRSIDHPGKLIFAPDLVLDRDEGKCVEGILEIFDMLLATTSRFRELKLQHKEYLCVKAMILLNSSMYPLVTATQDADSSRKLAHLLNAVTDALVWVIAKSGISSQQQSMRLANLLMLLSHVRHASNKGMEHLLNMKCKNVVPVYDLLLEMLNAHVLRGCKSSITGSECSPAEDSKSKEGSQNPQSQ
Description: Binding affinity to ERbeta
Test [2] has as its target T2, Estrogen receptor beta. The source holds these as a separate data set.
Description: Binding affinity to ERbeta in presence of serum
The target of test [3] is T2, Estrogen receptor beta. The source holds these as a separate data set.
Description: Binding affinity to ERbeta in HTRF coactivator recruitment assay

Consider 60 molecules from ChEMBL document CHEMBL1139663, “6H-Benzo[c]chromen-6-one derivatives as selective ERbeta agonists” (Bioorg Med Chem Lett, 2006).

For orientation: IC50 means the concentration that inhibits the measured activity by half. Read a high IC50 as weaker potency in that assay. With `Cc1cc(O)cc2c1-c1ccc(O)c(C)c1OC2CC(C)C` (stereo not drawn), the IC50 against Estrogen receptor stood at 627 nM; on Estrogen receptor beta [1] it was 49 nM.

With `Cc1c(O)ccc2c1oc(=O)c1c(C)ccc(C)c12`, the IC50 was 3070 nM on Estrogen receptor and 80 nM on Estrogen receptor beta [1].

Regarding `C=Cc1cc(OC)cc2c(=O)oc3c(C)c(O)ccc3c12`, the IC50 against Estrogen receptor is greater than 10000 nM; against Estrogen receptor beta [1], 53 nM.

By EC50 is commonly meant the concentration at which the effect is half-maximal. For `Cc1c(O)ccc2c1oc(=O)c1c(C)c(O)ccc12`, the half-maximal inhibitory concentration (IC50) against Estrogen receptor beta [2] amounted to 78 nM; against Estrogen receptor, 159 nM; against Estrogen receptor beta [1], 4.1 nM. It took 7.2 nM to reach a half-maximal effect at Estrogen receptor beta [3] (EC50).

For the molecule `Cc1c(O)ccc2c1oc(=O)c1cc(O)cc(C)c12`, the IC50 worked out at 583 nM at Estrogen receptor and 54 nM against Estrogen receptor beta [1].

For `Cc1c(O)ccc2c1c(=O)oc1c(F)c(O)ccc12`, the figures for the IC50 against Estrogen receptor and against Estrogen receptor beta [1] were 1580 nM and 54 nM, respectively.

On to `Cc1c(O)ccc2c1oc(=O)c1cc(O)ccc12`, for which the IC50 at Estrogen receptor turned out to be 654 nM; on Estrogen receptor beta [1] it was 46 nM.

In the case of `Cc1c(O)ccc2c1oc(=O)c1c(C)c(NC=O)ccc12`, the concentration for half-maximal inhibition (IC50) is greater than 10000 nM against Estrogen receptor and 957 nM at Estrogen receptor beta [1].

For the molecule `Cc1cc2c(=O)oc3c(C)c(O)ccc3c2c(C)c1Br`, the IC50 at Estrogen receptor was greater than 10000 nM; on Estrogen receptor beta [1] it was 57 nM.

Turning to `CCc1cc(O)cc2c(=O)oc3c(C)c(O)ccc3c12`, the IC50 against Estrogen receptor came to 1780 nM; at Estrogen receptor beta [1], 91 nM.

As for `Cc1c(O)ccc2c1oc(=O)c1cccc(C)c12`, the values for the IC50 on Estrogen receptor and against Estrogen receptor beta [1] were greater than 10000 nM and 326 nM, respectively.

Consider `CCc1cc(OC)cc2c(=O)oc3c(C)c(O)ccc3c12`, for which the results for the IC50 against Estrogen receptor and against Estrogen receptor beta [1] were 9830 nM and 69 nM, respectively.

Take `COc1c(C)c(Br)c2c(=O)oc3c(C)c(O)ccc3c2c1C`: the IC50 is 225 nM on Estrogen receptor and 1.15 nM at Estrogen receptor beta [1].

Consider `COc1ccc2c(c1C)c(=O)oc1c(C)c(O)ccc12`, for which the figures for the IC50 against Estrogen receptor and against Estrogen receptor beta [1] were 1000 nM and 117 nM, respectively.

On to `Cc1cc(Br)c2c(c1)c(=O)oc1c(C)c(O)ccc12`, for which the IC50 against Estrogen receptor turned out to be 3120 nM; on Estrogen receptor beta [1], 44 nM.

`Cc1c(O)ccc2c1c(=O)oc1cc(O)cc(C)c12`: the IC50 against Estrogen receptor worked out at 1860 nM; against Estrogen receptor beta [1], 67 nM.

For `COc1cc2c(=O)oc3c(C)c(O)ccc3c2cc1Br`, the IC50 against Estrogen receptor is 10000 nM; against Estrogen receptor beta [1], 77 nM.

As to `Cc1c(O)ccc2c1c(=O)oc1c(Br)c(O)ccc12`, the IC50 against Estrogen receptor was 1920 nM; against Estrogen receptor beta [1], 67 nM.

`CCCC1Oc2c(ccc(O)c2C)-c2c(C)cc(O)cc21` (stereo not drawn): the values for the IC50 at Estrogen receptor and on Estrogen receptor beta [1] were 626 nM and 22 nM, respectively.

On to `Cc1c(O)ccc2c1c(=O)oc1cc(O)ccc12`, for which the values for the IC50 at Estrogen receptor and against Estrogen receptor beta [1] were 1170 nM and 49 nM, respectively.

Take `COc1ccc2c(c1)c(=O)oc1c(C)c(O)ccc12`: the IC50 was greater than 10000 nM against Estrogen receptor and 308 nM at Estrogen receptor beta [1].

Take `Cc1c(O)ccc2c1OC(C)c1c-2ccc(O)c1C` (stereo not drawn): the IC50 against Estrogen receptor was determined as 335 nM; at Estrogen receptor beta [1], 8 nM.

`Cc1c(O)ccc2c1OC(C)(C)c1c-2ccc(O)c1C`: the IC50 turned out to be 468 nM at Estrogen receptor and 45 nM at Estrogen receptor beta [1].

Turning to `C=Cc1cc(C)cc2c(=O)oc3c(C)c(O)ccc3c12`, the IC50 against Estrogen receptor beta [2] worked out at 1280 nM; against Estrogen receptor, 10000 nM; against Estrogen receptor beta [1], 10 nM. For the same molecule, the EC50 on Estrogen receptor beta [3] was greater than 1000 nM.

With `Cc1cc(C)c2c(c1)c(=O)oc1c(C)c(O)ccc12`, the IC50 at Estrogen receptor came out at 3710 nM; against Estrogen receptor beta [1] it was 20 nM.

As to `C=CCC1(C)Oc2c(ccc(O)c2C)-c2c(C)cc(O)c(C)c21` (stereo not drawn), the figures for the IC50 on Estrogen receptor and against Estrogen receptor beta [1] were 157 nM and 13 nM, respectively.

For `CCC1Oc2c(ccc(O)c2C)-c2ccc(O)c(C)c21` (stereo not drawn), the values for the IC50 against Estrogen receptor and against Estrogen receptor beta [1] were 101 nM and 3.2 nM, respectively.

As for `CCC1Oc2c(ccc(O)c2C)-c2c(C)cc(O)cc21` (stereo not drawn), the IC50 turned out to be 435 nM against Estrogen receptor and 8 nM on Estrogen receptor beta [1].

Take `Cc1c(O)ccc2c1COc1c-2ccc(O)c1C`: the values for the IC50 at Estrogen receptor and against Estrogen receptor beta [1] were 4610 nM and 88 nM, respectively.

Take `C=Cc1ccc2c(c1)c(=O)oc1c(C)c(O)ccc12`: the IC50 came to 4590 nM against Estrogen receptor and 310 nM against Estrogen receptor beta [1].

With `Cc1c(O)ccc2c1oc(=O)c1c(C)c(N)ccc12`, the IC50 was determined as 14300 nM against Estrogen receptor and 279 nM against Estrogen receptor beta [1].

`C=Cc1cc(O)cc2c1-c1ccc(O)c(C)c1CC2` [EFFUSOL] showed an IC50 against Estrogen receptor beta [1] of 12 nM.

For `Cc1c(O)ccc2c1oc(=O)c1cc(Br)ccc12`, the figures for the IC50 against Estrogen receptor and on Estrogen receptor beta [1] were greater than 10000 nM and 128 nM, respectively.

As for `Cc1c(O)cc(C)c2c1oc(=O)c1c(C)c(O)ccc12`, the IC50 on Estrogen receptor amounted to 785 nM; against Estrogen receptor beta [1], 6.7 nM.

As for `Cc1c(O)ccc2c1oc(=O)c1ccccc12`, the results for the half-maximal inhibitory concentration (IC50) on Estrogen receptor and at Estrogen receptor beta [1] were greater than 10000 nM and 1450 nM, respectively.

As for `Cc1cc(O)c(C)c2c1-c1ccc(O)c(C)c1OC2C` (stereo not drawn), the half-maximal inhibitory concentration (IC50) worked out at 237 nM against Estrogen receptor and 9 nM against Estrogen receptor beta [1].

For `Cc1c(O)c(Cl)c(C)c2c1c(=O)oc1c(Cl)c(O)ccc12`, the IC50 was determined as 597 nM on Estrogen receptor and 22 nM against Estrogen receptor beta [1].

`C=Cc1cccc2c(=O)oc3c(C)c(O)ccc3c12`: the IC50 was greater than 10000 nM against Estrogen receptor and 208 nM on Estrogen receptor beta [1].

As to `Cc1c(O)ccc2c1oc(=O)c1c(C)c(O)cc(C)c12`, the IC50 on Estrogen receptor came out at 716 nM; at Estrogen receptor beta [1] it was 5.7 nM.

Regarding `Cc1cc(O)cc2c1-c1ccc(O)c(C)c1OC2C` (stereo not drawn), the IC50 amounted to 1210 nM on Estrogen receptor and 24 nM against Estrogen receptor beta [1].

As to `Cc1c(O)c(Cl)cc2c1c(=O)oc1c(Cl)c(O)ccc12`, the IC50 is 524 nM on Estrogen receptor and 19 nM at Estrogen receptor beta [1].

As for `Cc1cc(O)cc2c1-c1ccc(O)c(C)c1OC2`, the IC50 against Estrogen receptor is 1030 nM; at Estrogen receptor beta [1] it was 74 nM.

For the molecule `Cc1c(O)cc(C)c2c1oc(=O)c1cc(O)ccc12`, the figures for the IC50 against Estrogen receptor and against Estrogen receptor beta [1] were 488 nM and 27 nM, respectively.

Take `Cc1c(O)ccc2c1oc(=O)c1c(C)cccc12`: the IC50 at Estrogen receptor was greater than 10000 nM; against Estrogen receptor beta [1] it was 93 nM.

`Cc1c(O)ccc2c1oc(=O)c1c(Br)cc(Br)cc12`: the values for the IC50 at Estrogen receptor and against Estrogen receptor beta [1] were 597 nM and 24 nM, respectively.

As for `C/C=C/c1cccc2c(=O)oc3c(C)c(O)ccc3c12`, the IC50 against Estrogen receptor amounted to 3030 nM; against Estrogen receptor beta [1] it was 116 nM.

For `CCc1c(O)ccc2c1oc(=O)c1cc(Br)ccc12`, the values for the IC50 against Estrogen receptor and against Estrogen receptor beta [1] were 5460 nM and 2340 nM, respectively.

In the case of `COc1c(C)cc2c(=O)oc3c(C)c(O)ccc3c2c1C`, the IC50 at Estrogen receptor came to 4160 nM; on Estrogen receptor beta [1] it was 16 nM.

On to `Cc1cc2c(cc1Br)c(=O)oc1c(C)c(O)ccc12`, for which the IC50 against Estrogen receptor was found to be 6850 nM; at Estrogen receptor beta [1], 215 nM.

Regarding `Cc1cc(C)c2c(c1)c(=O)oc1cc(O)ccc12`, the IC50 was determined as 585 nM at Estrogen receptor and 90 nM at Estrogen receptor beta [1].

Turning to `CC/C=C/c1cc2c(cc1Br)c(=O)oc1c(C)c(O)ccc12`, the figures for the IC50 on Estrogen receptor and against Estrogen receptor beta [1] were 1090 nM and 26 nM, respectively.

As to `O=c1oc2c(Cl)c(O)ccc2c2cc(F)c(O)c(Cl)c12`, the values for the IC50 against Estrogen receptor and on Estrogen receptor beta [1] were 11600 nM and 180 nM, respectively.

As to `C=CCc1cc(C)cc2c(=O)oc3c(C)c(O)ccc3c12`, the IC50 at Estrogen receptor was 10000 nM; at Estrogen receptor beta [1] it was 35 nM.

As to `Cc1cc(O)c(Cl)c2c(=O)oc3c(Cl)c(O)ccc3c12`, the IC50 amounted to 2520 nM against Estrogen receptor and 18 nM against Estrogen receptor beta [1].

On to `Cc1c(O)ccc2c1oc(=O)c1c(C)c(NS(C)(=O)=O)ccc12`, for which the half-inhibitory concentration (IC50) on Estrogen receptor is 4260 nM; against Estrogen receptor beta [1], 433 nM.

Take `Cc1c(O)ccc2c1oc(=O)c1c(O)c(O)ccc12`: the IC50 against Estrogen receptor worked out at 1280 nM; against Estrogen receptor beta [1] it was 82 nM.

On to `CCc1c(O)ccc2c1c(=O)oc1c(C)c(O)ccc12`, for which the figures for the IC50 against Estrogen receptor and against Estrogen receptor beta [1] were 484 nM and 14 nM, respectively.

`CCc1c(O)ccc2c1oc(=O)c1c(C)c(O)ccc12`: the values for the IC50 against Estrogen receptor and at Estrogen receptor beta [1] were 229 nM and 7.8 nM, respectively.

With `CCC1Oc2c(ccc(O)c2C)-c2c(C)cc(O)c(C)c21` (stereo not drawn), the IC50 at Estrogen receptor turned out to be 129 nM; against Estrogen receptor beta [1], 2.3 nM.

Regarding `CCc1c(O)ccc2c1c(=O)oc1c(F)c(O)ccc12`, the IC50 worked out at 228 nM against Estrogen receptor and 21 nM at Estrogen receptor beta [1].
